± gives the standard deviation of the reports.
| Compound | glass transition temperature [°C] |
| --- | --- |
| *c1cccc(N2C(=O)c3cccc(Oc4ccc(-c5ccc(Oc6cccc7c6C(=O)N(*)C7=O)cc5)cc4)c3C2=O)c1 (repeat unit) | 275.00 |
| *Oc1ccc(SSc2ccc(*)cc2)cc1 (repeat unit) | 76.80 |
| *=CNc1ccc(Cc2ccc(N=*)cc2)cc1 (repeat unit) | 95.50 |
| *NC1CCC(CCC2CCC(NC(=O)CCCCCCCCCCC(*)=O)CC2)CC1 (repeat unit) | 105.00 |
| *c1ccc(Oc2ccc(Oc3ccc(Oc4ccc(-n5c(=O)c6cc7c(=O)n(*)c(=O)c7cc6c5=O)cc4)cc3)cc2)cc1 (repeat unit) | 295.00 |
| *Sc1ccc(Sc2ccc(Sc3ccc4c(c3)C(=O)N(N3C(=O)c5cccc(*)c5C3=O)C4=O)cc2)cc1 (repeat unit) | 242.00 |
| *CC(F)(F)CC(*)(C(F)(F)F)C(F)(F)F (repeat unit) | 132.00 |
| *CC(COc1ccc(S(=O)(=O)c2ccc(O*)cc2)cc1)OC(C)=O (repeat unit) | 130.00 |
| *Nc1ccc(C(=O)Nc2ccc(Cc3ccc(NC(=O)c4ccc(NC(=O)c5ccc([Si](C)(C)c6ccc(C(*)=O)cc6)cc5)cc4)cc3)cc2)cc1 (repeat unit) | 300.00 |
| *c1ccc(-c2cc(CCCCCCCC)c(-c3ccc(-c4ccc(-c5sc(-c6ccc([Si](C)(C)[Si](*)(C)C)s6)cc5CCCCCCCC)s4)s3)s2)s1 (repeat unit) | 12.00 |
| *c1ccc(Oc2ccc(-c3ccc(Oc4ccc(N5C(=O)c6ccc(Oc7cc8ccccc8cc7Oc7ccc8c(c7)C(=O)N(*)C8=O)cc6C5=O)cc4)cc3)cc2)cc1 (repeat unit) | 222.50 |
| *CCCCCNC(=O)CC(=O)N* (repeat unit) | 65.00 |
| *Oc1ccc(S(=O)(=O)c2ccc(Oc3ccc4c(=O)n5c6cc(Oc7ccc8c(c7)nc7c9ccc(*)c%10cccc(c(=O)n87)c%109)ccc6nc5c5cccc3c45)cc2)cc1 (repeat unit) | 374.00 |
| *CCCCCNC(=O)CCCCC(=O)N* (repeat unit) | 46.50 |
| *CC(*)OCCOc1ccc(C=C(C#N)C#N)cc1 (repeat unit) | 38.00 |
| *CC(*)(F)C(=O)OC (repeat unit) | 142.00 |
| *CCC1C(=O)N(CCCC)C(=O)C1* (repeat unit) | 67.90 |
| *O[Si](*)(C)CC[Si](OCCOC)(OCCOC)OCCOC (repeat unit) | 28.90 |
| *OC(=O)c1ccc(C(=O)OC2CC3CC(*)CC(C2)O3)cc1 (repeat unit) | 207.00 |
| *CC(*)(C)C(=O)OCCCCCCOc1ccc(C(=O)Oc2ccc(/N=N/c3ccc(C#N)cc3)c3ccccc23)cc1 (repeat unit) | 41.00 |
| *c1ccc(N2C(=O)c3ccc(Oc4ccc5c(c4)C(=O)N(*)C5=O)cc3C2=O)cc1 (repeat unit) | 355.8 ± 42 |
| *c1ccc(Cc2ccc(N3C(=O)c4ccc([Si](C)(C)O[Si](C)(C)c5ccc6c(c5)C(=O)N(*)C6=O)cc4C3=O)cc2)cc1 (repeat unit) | 232.00 |
| *Oc1ccccc1C(=O)OC(=O)c1ccccc1OC(=O)CCCCCCCCC(*)=O (repeat unit) | 28.00 |
| *c1cc(C)c(/N=C/c2ccc(OCc3ccccc3COc3ccc(/C=N/c4cc(C)c(N5C(=O)c6ccc7c8ccc9c%10c(ccc(c%11ccc(c6c7%11)C5=O)c%108)C(=O)N(*)C9=O)cc4C)cc3OC)c(OC)c2)cc1C (repeat unit) | 143.00 |
| *c1ccc2c(c1)C(=O)N(c1cc(C(c3ccc(OCCN(CC)c4ccc(/N=N/c5ccc([N+](=O)[O-])cc5)cc4)c(N4C(=O)c5ccc(C(*)(C(F)(F)F)C(F)(F)F)cc5C4=O)c3)(C(F)(F)F)C(F)(F)F)ccc1OCCN(CC)c1ccc(/N=N/c3ccc([N+](=O)[O-])cc3)cc1)C2=O (repeat unit) | 199.00 |
